Converted amounts (≈) assume the structure as drawn. The source made the active and inactive calls. The rule behind the calls is not given here.
Experiments:
[1] = Solubility of the compound in simulated intestinal fluid compliant with Japanese pharmacopeia; type: ADME
[2] = molecular target: T1, Bifunctional epoxide hydrolase 2 (Rattus norvegicus, UniProt P80299); test: Inhibition of rat recombinant sEH expressed in baculovirus infected insect Sf9 cells using cyano(6-methoxynaphthalen-2-yl)methyl trans-[(3-phenyloxiran-2-yl)methyl] carbonate as substrate preincubated for 30 mins followed by substrate addition measured after 20 to 45 mins by fluorescence assay
T1 sequence (P80299 whole entry): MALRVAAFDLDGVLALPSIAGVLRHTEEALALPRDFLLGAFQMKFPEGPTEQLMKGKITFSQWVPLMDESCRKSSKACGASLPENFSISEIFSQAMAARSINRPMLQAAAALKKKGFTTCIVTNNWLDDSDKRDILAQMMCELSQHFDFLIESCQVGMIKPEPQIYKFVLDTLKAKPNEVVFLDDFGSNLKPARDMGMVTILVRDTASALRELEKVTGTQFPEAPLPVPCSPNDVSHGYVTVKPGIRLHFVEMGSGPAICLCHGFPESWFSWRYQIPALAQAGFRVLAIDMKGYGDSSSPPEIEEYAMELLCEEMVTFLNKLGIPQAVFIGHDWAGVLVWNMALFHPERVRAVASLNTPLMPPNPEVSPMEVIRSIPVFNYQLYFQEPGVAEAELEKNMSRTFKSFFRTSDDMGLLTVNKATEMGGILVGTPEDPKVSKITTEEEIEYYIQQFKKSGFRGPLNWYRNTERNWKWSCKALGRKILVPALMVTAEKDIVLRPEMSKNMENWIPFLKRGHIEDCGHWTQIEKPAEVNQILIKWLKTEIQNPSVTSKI

[3] = Solubility of the compound in simulated gastric fluid compliant with Japanese pharmacopeia; type: ADME
[4] = molecular target: T2, Bifunctional epoxide hydrolase 2 (Homo sapiens, UniProt P34913); test: Inhibition of human recombinant sEH expressed in baculovirus infected insect Sf9 cells using cyano(6-methoxynaphthalen-2-yl)methyl trans-[(3-phenyloxiran-2-yl)methyl] carbonate as substrate preincubated for 30 mins followed by substrate addition measured after 20 to 45 mins by fluorescence assay
T2 sequence (P34913 whole entry): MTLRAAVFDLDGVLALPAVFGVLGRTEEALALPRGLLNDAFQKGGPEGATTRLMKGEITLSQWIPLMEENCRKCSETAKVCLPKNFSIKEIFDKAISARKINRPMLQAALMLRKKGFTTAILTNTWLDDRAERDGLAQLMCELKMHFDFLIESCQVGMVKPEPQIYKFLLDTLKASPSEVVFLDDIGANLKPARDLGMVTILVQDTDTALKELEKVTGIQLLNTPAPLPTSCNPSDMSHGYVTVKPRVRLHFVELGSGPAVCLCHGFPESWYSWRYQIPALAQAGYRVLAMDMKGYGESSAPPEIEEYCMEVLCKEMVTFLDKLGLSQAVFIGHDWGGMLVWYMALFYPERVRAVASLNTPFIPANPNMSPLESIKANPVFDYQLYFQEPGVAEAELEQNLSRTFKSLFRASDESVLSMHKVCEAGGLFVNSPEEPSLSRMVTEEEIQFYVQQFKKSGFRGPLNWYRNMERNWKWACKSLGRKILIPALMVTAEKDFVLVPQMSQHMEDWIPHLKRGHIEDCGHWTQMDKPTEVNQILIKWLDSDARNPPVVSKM

Liver microsome = test: Metabolic stability in human liver microsomes measured per mg of protein; type: ADME
[5] = Tmax in rat at 1 mg/kg, po; type: ADME, organism-based; set-up: dose 1 mg/kg, route oral; details: in vivo
[6] = AUC (0 to infinity) in rat at 1 mg/kg, po; type: ADME, organism-based; set-up: time infinity, dose 1 mg/kg, route oral; details: plasma
[7] = AUC (0 to infinity) in rat at 0.2 mg/kg, iv; type: ADME, organism-based; set-up: time infinity, dose 0.2 mg/kg, route intravenous; details: plasma
[8] = Cmax in rat at 1 mg/kg, po; type: ADME, organism-based; set-up: dose 1 mg/kg, route oral; details: in vivo
[9] = Half life in rat at 0.2 mg/kg, iv; type: ADME, organism-based; set-up: dose 0.2 mg/kg, route intravenous; details: in vivo
[10] = Total clearance in rat at 0.2 mg/kg, iv; type: ADME, organism-based; set-up: dose 0.2 mg/kg, route intravenous; details: in vivo
[11] = Oral bioavailability in rat at 1 mg/kg; type: ADME, organism-based; details: in vivo
[12] = Drug uptake in rat at 0.2 mg/kg, iv at 5 mins; type: ADME, organism-based; set-up: dose 0.2 mg/kg, route intravenous; details: in vivo, read-out: Drug uptake
[13] = Volume of distribution at steady state in rat at 0.2 mg/kg, iv; type: ADME, organism-based; set-up: dose 0.2 mg/kg, route intravenous; details: in vivo, read-out: Vdss
Rattus norvegicus = test: Reduction of serum creatinine level in rat anti-glomerular basement membrane glomerulonephritis model at 30 mg/kg, po qd administered for 3 weeks; type: functional, organism-based; set-up: dose 30 mg/kg

SMILES | solubility [1] [mg/mL] | IC50 [2] [nM] | solubility [3] [mg/mL] | IC50 [4] [nM] | CLint (Liver microsome) [µL/min/mg] | Tmax [5] [h] | AUC(0-inf) [6] [µg·h/mL] | AUC(0-inf) [7] [µg·h/mL] | Cmax [8] [µg/mL] | half-life [9] [h] | clearance [10] [L/h/kg] | bioavailability [11] [%] | concentration at 5 min [12] [µg/mL] | Vd [13] [L/kg] | Activity (Rattus norvegicus)
Cc1cnc(C(=O)N2CCC3(CC2)CN(C(=O)Nc2ccc(OC(F)(F)F)cc2)CCO3)cn1 | 0.092 (≈ 192 µM) | 8.8 | 0.091 (≈ 190 µM) | 0.9 | 12 | 1 | 0.0613 | 0.111 | 0.00864 | 1.53 | 1.81 | 11.1 | 0.134 | 1.82 | –
O=C(Nc1ccc(C(F)(F)F)cc1)N1CCOC2(CCN(C(=O)c3ccccc3)CC2)C1 | 0.063 (≈ 141 µM) | – | 0.062 (≈ 139 µM) | 3.2 | – | – | – | – | – | – | – | – | – | – | –
N#Cc1ccc(C(=O)N2CCC3(CC2)CN(C(=O)Nc2ccc(C(F)(F)F)cc2)CCO3)cc1 | 0.082 (≈ 174 µM) | 15 | 0.085 (≈ 180 µM) | 1.9 | 3 | – | – | – | – | – | – | – | – | – | –
CC(=O)Nc1ccccc1C(=O)N1CCC2(CC1)CN(C(=O)Nc1ccc(C(F)(F)F)cc1)CCO2 | 0.093 (≈ 184 µM) | 6.8 | 0.092 (≈ 182 µM) | 0.8 | 39 | – | – | – | – | – | – | – | – | – | –
O=C(Nc1ccc(OC(F)(F)F)cc1)N1CCOC2(CCN(C(=O)c3c[nH]nc3C3CC3)CC2)C1 | 0.092 (≈ 186 µM) | 96.9 | 0.093 (≈ 188 µM) | 1.1 | 35 | – | – | – | – | – | – | – | – | – | –
O=C(Cc1ccccn1)N1CCC2(CC1)CN(C(=O)Nc1ccc(OC(F)(F)F)cc1)CCO2 | 0.09 (≈ 188 µM) | > 20 | 0.092 (≈ 192 µM) | 0.7 | 132 | – | – | – | – | – | – | – | – | – | –
CC(C)(C)C(=O)N1CCC2(CC1)CN(C(=O)Nc1ccc(C(F)(F)F)cc1)CCO2 | 0.073 (≈ 171 µM) | 12 | 0.076 (≈ 178 µM) | 2.9 | 98 | – | – | – | – | – | – | – | – | – | –
Cc1cc(C(=O)N2CCC3(CC2)CN(C(=O)Nc2ccc(OC(F)(F)F)cc2)CCO3)no1 | 0.083 (≈ 177 µM) | 25.7 | 0.084 (≈ 179 µM) | 1.4 | 47 | 2 | 0.123 | 0.0902 | 0.00958 | 1.17 | 2.22 | 24.1 | 0.0777 | 3.31 | –
O=C(Nc1ccc(C(F)(F)F)cc1)N1CCOC2(CCN(C(=O)c3ccccc3Cl)CC2)C1 | 0.012 (≈ 24.9 µM) | 13 | 0.01 (≈ 20.8 µM) | 1.4 | 48 | – | – | – | – | – | – | – | – | – | –
O=C(CC1CC1)N1CCC2(CC1)CN(C(=O)Nc1ccc(C(F)(F)F)cc1)CCO2 | 0.079 (≈ 186 µM) | 31.4 | 0.079 (≈ 186 µM) | 2.1 | 74 | – | – | – | – | – | – | – | – | – | –
O=C(Nc1ccc(C(F)(F)F)cc1)N1CCOC2(CCN(C(=O)c3ccco3)CC2)C1 | 0.075 (≈ 171 µM) | – | 0.075 (≈ 171 µM) | 5.4 | – | – | – | – | – | – | – | – | – | – | –

Now from value to compound, other results behind:

solubility [1] [mg/mL] | IC50 [2] [nM] | solubility [3] [mg/mL] | IC50 [4] [nM] | CLint (Liver microsome) [µL/min/mg] | Tmax [5] [h] | AUC(0-inf) [6] [µg·h/mL] | AUC(0-inf) [7] [µg·h/mL] | Cmax [8] [µg/mL] | half-life [9] [h] | clearance [10] [L/h/kg] | bioavailability [11] [%] | concentration at 5 min [12] [µg/mL] | Vd [13] [L/kg] | SMILES | Activity (Rattus norvegicus)
0.089 (≈ 178 µM) | 11.6 | 0.09 (≈ 180 µM) | 0.6 | 62 | – | – | – | – | – | – | – | – | – | O=C(Nc1ccc(OC(F)(F)F)cc1)N1CCOC2(CCN(C(=O)c3cc(Cl)ccn3)CC2)C1 | –
0.038 (≈ 78.6 µM) | 19.1 | 0.043 (≈ 88.9 µM) | 1.3 | 93 | – | – | – | – | – | – | – | – | – | O=C(Nc1ccc(C(F)(F)F)cc1)N1CCOC2(CCN(C(=O)c3c(F)cccc3F)CC2)C1 | –
0.093 (≈ 179 µM) | > 20 | 0.096 (≈ 185 µM) | 1.8 | 29 | – | – | – | – | – | – | – | – | – | O=C1Cc2cc(C(=O)N3CCC4(CC3)CN(C(=O)Nc3ccc(OC(F)(F)F)cc3)CCO4)ccc2N1 | –
– | – | – | 2.96 | – | – | – | – | – | – | – | – | – | – | O=C(Nc1ccc(OC(F)(F)F)cc1)N1CCC2(CCCN(C(=O)c3c(F)cccc3F)C2)CC1 | –
0.023 (≈ 47.7 µM) | 24.9 | 0.029 (≈ 60.2 µM) | 1 | 21 | – | – | – | – | – | – | – | – | – | O=C(Nc1ccc(C(F)(F)F)cc1)N1CCOC2(CCN(C(=O)c3ccc(Cl)cc3)CC2)C1 | –
0.039 (≈ 78.1 µM) | 18.5 | 0.044 (≈ 88.1 µM) | 0.7 | 86 | – | – | – | – | – | – | – | – | – | O=C(Nc1ccc(OC(F)(F)F)cc1)N1CCOC2(CCN(C(=O)c3c(F)cccc3F)CC2)C1 | –
0.033 (≈ 65.5 µM) | 28 | 0.037 (≈ 73.5 µM) | 0.4 | 228 | – | – | – | – | – | – | – | – | – | O=C(Nc1ccc(OC(F)(F)F)cc1)N1CCOC2(CCN(C(=O)C3(c4ccccc4)CC3)CC2)C1 | –
0.059 (≈ 116 µM) | 71.6 | 0.066 (≈ 130 µM) | 0.5 | 461 | – | – | – | – | – | – | – | – | – | COc1ccccc1CC(=O)N1CCC2(CC1)CN(C(=O)Nc1ccc(OC(F)(F)F)cc1)CCO2 | –
0.089 (≈ 180 µM) | 22.2 | 0.086 (≈ 174 µM) | 0.6 | 87 | – | – | – | – | – | – | – | – | – | O=C(Nc1ccc(OC(F)(F)F)cc1)N1CCOC2(CCN(C(=O)c3cnoc3C3CC3)CC2)C1 | –
0.083 (≈ 185 µM) | – | 0.085 (≈ 190 µM) | 4.2 | – | – | – | – | – | – | – | – | – | – | O=C(Nc1ccc(C(F)(F)F)cc1)N1CCOC2(CCN(C(=O)c3ccccn3)CC2)C1 | –
0.046 (≈ 92.1 µM) | – | 0.052 (≈ 104 µM) | 5.4 | – | – | – | – | – | – | – | – | – | – | O=C(Nc1ccc(OC(F)(F)F)cc1)N1CCC2(CC1)CN(C(=O)c1c(F)cccc1F)CCO2 | –
0.063 (≈ 134 µM) | 14.5 | 0.069 (≈ 147 µM) | 0.6 | 357 | – | – | – | – | – | – | – | – | – | O=C(Nc1ccc(OC(F)(F)F)cc1)N1CCOC2(CCN(C(=O)C3CCCCC3)CC2)C1 | –
0.021 (≈ 43.6 µM) | 36.9 | 0.026 (≈ 54 µM) | 1.2 | 100 | – | – | – | – | – | – | – | – | – | O=C(Nc1ccc(C(F)(F)F)cc1)N1CCOC2(CCN(C(=O)c3cccc(Cl)c3)CC2)C1 | –
0.009 (≈ 18.1 µM) | 3.3 | 0.009 (≈ 18.1 µM) | 0.125 | 602 | – | – | – | – | – | – | – | – | – | O=C(Nc1ccc(OC(F)(F)F)cc1)N1CCCC2(CCN(C(=O)c3c(F)cccc3F)CC2)C1 | –
0.062 (≈ 129 µM) | 9.3 | 0.071 (≈ 147 µM) | 1.1 | 30 | 1 | 0.306 | 0.173 | 0.0204 | 2.63 | 1.16 | 35.4 | 0.071 | 3.56 | O=C(Nc1ccc(OC(F)(F)F)cc1)N1CCOC2(CCN(C(=O)c3ccccc3F)CC2)C1 | Active
